# In US20240358693A1, “METHODS OF TREATING PAIN” (Aisa Pharma, Inc., priority 2023, published 2024):
# Test system: participants with Raynaud's Phenomenon secondary mostly to systemic sclerosis (SSc-RP)
# Test: Frequency of weekly symptomatic RP attacks (patient diary), Phase 2a study Part A
# Type: in vivo, human
# Details: ITT Part A
# Experimental: A randomized, placebo-controlled phase 2a study was performed and is in progress to assess the safety and efficacy of cilnidipine (10 mg and 20 mg) alone and in combination with 5 mg tadalafil, in participants with diagnosis of scleroderma and/or secondary Raynaud's disease.
# The relevant metrics measured by this tool daily are: • Study medication • SSc-RP symptoms (Reporting an attack including duration of attack) • Severity of the attack considering all symptoms of the attack e.g., tingling, numbness, pain, color changes (VAS 0-10 cm scale) • Participant's location at the time of the attack (inside home/outside home) • Selecting symptoms experienced during the attack (tingling, numbness, pain, color changes, other) • Pain rating during the attack (11-point Likert scale) • The RCS based on how much difficulty participants had with Raynaud's today, how many attacks the participant had, and how long they lasted. Participants will also be asked to consider how much pain, numbness, or other symptoms the Raynaud's caused in fingers (including painful sores), and how much the Raynaud's alone affected the use of hands today (VAS 0-10 cm scale).
# Percent change from baseline evaluation for frequency of weekly RP attacks were or will be used as the primary efficacy variable. The sponsor-developed participant-informed diary will be used to record data. Frequency of weekly RP attacks is defined as the total number of RP attacks divided by the number of days with available diary data within the last 7 days of each dosing period then multiplied by 7. Total number of RP attacks during the last 7 days of screening period divided by the number of days with available data then multiplied by 7 will be used as baseline for the analysis of all periods. The variable will be calculated as follows:
# Percentage change={(weekly RP attacks for the last 7 days of each dosing period−Baseline weekly RP attacks)/Baseline weekly RP attacks}*100%.
# Absolute change=weekly RP attacks for the last 7 days of each dosing period−Baseline weekly RP attacks
# Percent change from baseline evaluation for frequency of weekly RP attacks was and will be the primary efficacy endpoint. Frequency of weekly RP attacks is defined as the total number of RP attacks divided by the number of days with available diary data within the last 7 days of each dosing period then multiplied by 7. Total number of RP attacks during the last 7 days of screening period divided by the number of days with available data then multiplied by 7 will be used as baseline for the analysis of all periods.
# The following data was actually obtained in accordance with the protocol and plan delineated in Examples 1 and 2. The accompanying data involved 11 patients out of the planned 76 patient study. The study was done in patients with scleroderma (systemic sclerosis) who had relatively frequent Raynaud symptoms as they needed to average at least one attack per day during a screening period of up to two weeks. In this first phase of this double-blind placebo-controlled, prospective randomized study, patients were treated in parallel and after meeting study criteria were randomized to receive either placebo, cilnidipine 10 mg daily, cilnidipine 20 mg daily, tadalafil 5 mg daily, cilnidipine 10 mg plus 5 mg of tadalafil, or cilnidipine 20 mg plus 5 mg of tadalafil.
# [1] = Cilnidipine 10 mg, n 1, Excluding Outliers
# [2] = Cilnidipine 10 mg, n 1, by Baseline RCS, 1st block (RCS <5.0)
# [3] = Cilnidipine 20 mg, n 2, Excluding Outliers
# [4] = Cilnidipine 20 mg, n 2, by Baseline RCS, 1st block (RCS <5.0)
# [5] = Pooled Cilnidipine 10 mg and Cilnidipine 10 mg + Tadalafil 5 mg (N = 3)
# [6] = Pooled Cilnidipine 10 mg and Cilnidipine 10 mg + Tadalafil 5 mg, n 1, by Baseline RCS, 2nd block (RCS >5.0)
# [7] = Pooled Cilnidipine 10 mg and Cilnidipine 10 mg + Tadalafil 5 mg, n 2, by Baseline RCS, 1st block (RCS <5.0)
# [8] = Pooled Cilnidipine 10 mg and Cilnidipine 10 mg + Tadalafil 5 mg, n 3, Excluding Outliers
# [9] = Pooled Cilnidipine 20 mg and Cilnidipine 20 mg + Tadalafil 5 mg (N = 4)
# [10] = Pooled Cilnidipine 20 mg and Cilnidipine 20 mg + Tadalafil 5 mg, n 1, by Baseline RCS, 2nd block (RCS >5.0)
# [11] = Pooled Cilnidipine 20 mg and Cilnidipine 20 mg + Tadalafil 5 mg, n 3, by Baseline RCS, 1st block (RCS <5.0)
smiles,measurement,setting,value
"COCCOC(=O)C1=C(C)NC(C)=C(C(=O)OC/C=C/c2ccccc2)C1c1cccc([N+](=O)[O-])c1 (stereo not shown) [Cilnidipine, cilnidipine]","Weekly Symptomatic RP Attacks Change from Baseline, Mean",Cilnidipine 10 mg (N = 1),−7.00
same,"Weekly Symptomatic RP Attacks Change from Baseline, Median",Cilnidipine 10 mg (N = 1),−7.00
same,"Weekly Symptomatic RP Attacks Percent Change from Baseline, Mean",Cilnidipine 10 mg (N = 1),−33.33%
same,"Weekly Symptomatic RP Attacks Percent Change from Baseline, Median",Cilnidipine 10 mg (N = 1),−33.33%
same,"Weekly Symptomatic RP Attacks, Mean",Cilnidipine 10 mg (N = 1),14.00
same,"Weekly Symptomatic RP Attacks, Median",Cilnidipine 10 mg (N = 1),14.00
same,"Weekly Symptomatic RP Attacks Change from Baseline, Mean (SD)",[1],−7.00
same,"Weekly Symptomatic RP Attacks Change from Baseline, Median",[1],−7.00
same,"Weekly Symptomatic RP Attacks Percent Change from Baseline, Mean (SD)",[1],−33.33%
same,"Weekly Symptomatic RP Attacks Percent Change from Baseline, Median",[1],−33.33%
same,"Weekly Symptomatic RP Attacks, Mean (SD)",[1],14.00
same,"Weekly Symptomatic RP Attacks, Median",[1],14.00
same,"Weekly Symptomatic RP Attacks Change from Baseline, Mean (SD)",[2],−7.00
same,"Weekly Symptomatic RP Attacks Change from Baseline, Median",[2],−7.00
same,"Weekly Symptomatic RP Attacks Percent Change from Baseline, Mean (SD)",[2],−33.33%
same,"Weekly Symptomatic RP Attacks Percent Change from Baseline, Median",[2],−33.33%
same,"Weekly Symptomatic RP Attacks, Mean (SD)",[2],14.00
same,"Weekly Symptomatic RP Attacks, Median",[2],14.00
same,"Weekly Symptomatic RP Attacks Change from Baseline, Mean",Cilnidipine 20 mg (N = 2),−4.50
same,"Weekly Symptomatic RP Attacks Change from Baseline, Median",Cilnidipine 20 mg (N = 2),−4.50
same,"Weekly Symptomatic RP Attacks Percent Change from Baseline, Mean",Cilnidipine 20 mg (N = 2),−33.73%
same,"Weekly Symptomatic RP Attacks Percent Change from Baseline, Median",Cilnidipine 20 mg (N = 2),−33.73%
same,"Weekly Symptomatic RP Attacks, Mean",Cilnidipine 20 mg (N = 2),8.00
same,"Weekly Symptomatic RP Attacks, Median",Cilnidipine 20 mg (N = 2),8.00
same,"Weekly Symptomatic RP Attacks Change from Baseline, Mean (SD)",[3],−4.50 (3.536)
same,"Weekly Symptomatic RP Attacks Change from Baseline, Median",[3],−4.50
same,"Weekly Symptomatic RP Attacks Percent Change from Baseline, Mean (SD)",[3],−33.73 (7.296) %
same,"Weekly Symptomatic RP Attacks Percent Change from Baseline, Median",[3],−33.73%
same,"Weekly Symptomatic RP Attacks, Mean (SD)",[3],8.00 (4.243)
same,"Weekly Symptomatic RP Attacks, Median",[3],8.00
same,"Weekly Symptomatic RP Attacks Change from Baseline, Mean (SD)",[4],−4.50 (3.536)
same,"Weekly Symptomatic RP Attacks Change from Baseline, Median",[4],−4.50
same,"Weekly Symptomatic RP Attacks Percent Change from Baseline, Mean (SD)",[4],−33.73 (7.296) %
same,"Weekly Symptomatic RP Attacks Percent Change from Baseline, Median",[4],−33.73%
same,"Weekly Symptomatic RP Attacks, Mean (SD)",[4],8.00 (4.243)
same,"Weekly Symptomatic RP Attacks, Median",[4],8.00
same,"Weekly Symptomatic RP Attacks Change from Baseline, Mean",[5],−4.67
same,"Weekly Symptomatic RP Attacks Change from Baseline, Median",[5],−4.00
same,"Weekly Symptomatic RP Attacks Percent Change from Baseline, Mean",[5],−40.21%
same,"Weekly Symptomatic RP Attacks Percent Change from Baseline, Median",[5],−42.86%
same,"Weekly Symptomatic RP Attacks, Mean",[5],7.67
same,"Weekly Symptomatic RP Attacks, Median",[5],5.00
same,"Weekly Symptomatic RP Attacks Change from Baseline, Mean (SD)",[6],−3.00
same,"Weekly Symptomatic RP Attacks Change from Baseline, Median",[6],−3.00
same,"Weekly Symptomatic RP Attacks Percent Change from Baseline, Mean (SD)",[6],−42.86%
same,"Weekly Symptomatic RP Attacks Percent Change from Baseline, Median",[6],−42.86%
same,"Weekly Symptomatic RP Attacks, Mean (SD)",[6],4.00
same,"Weekly Symptomatic RP Attacks, Median",[6],4.00
same,"Weekly Symptomatic RP Attacks Change from Baseline, Mean (SD)",[7],−5.50 (2.121)
same,"Weekly Symptomatic RP Attacks Change from Baseline, Median",[7],−5.50
same,"Weekly Symptomatic RP Attacks Percent Change from Baseline, Mean (SD)",[7],−38.89 (7.857) %
same,"Weekly Symptomatic RP Attacks Percent Change from Baseline, Median",[7],−38.89%
same,"Weekly Symptomatic RP Attacks, Mean (SD)",[7],9.50 (6.364)
same,"Weekly Symptomatic RP Attacks, Median",[7],9.50
same,"Weekly Symptomatic RP Attacks Change from Baseline, Mean (SD)",[8],−4.67 (2.082)
same,"Weekly Symptomatic RP Attacks Change from Baseline, Median",[8],−4.00
same,"Weekly Symptomatic RP Attacks Percent Change from Baseline, Mean (SD)",[8],−40.21 (6.009) %
same,"Weekly Symptomatic RP Attacks Percent Change from Baseline, Median",[8],−42.86%
same,"Weekly Symptomatic RP Attacks, Mean (SD)",[8],7.67 (5.508)
same,"Weekly Symptomatic RP Attacks, Median",[8],5.00
same,"Weekly Symptomatic RP Attacks Change from Baseline, Mean",[9],−3.63
same,"Weekly Symptomatic RP Attacks Change from Baseline, Median",[9],−3.50
same,"Weekly Symptomatic RP Attacks Percent Change from Baseline, Mean",[9],−25.00%
same,"Weekly Symptomatic RP Attacks Percent Change from Baseline, Median",[9],−28.17%
same,"Weekly Symptomatic RP Attacks, Mean",[9],9.75
same,"Weekly Symptomatic RP Attacks, Median",[9],10.50
same,"Weekly Symptomatic RP Attacks Change from Baseline, Mean (SD)",[10],−0.50
same,"Weekly Symptomatic RP Attacks Change from Baseline, Median",[10],−0.50
same,"Weekly Symptomatic RP Attacks Percent Change from Baseline, Mean (SD)",[10],−4.76%
same,"Weekly Symptomatic RP Attacks Percent Change from Baseline, Median",[10],−4.76%
same,"Weekly Symptomatic RP Attacks, Mean (SD)",[10],10.00
same,"Weekly Symptomatic RP Attacks, Median",[10],10.00
same,"Weekly Symptomatic RP Attacks Change from Baseline, Mean (SD)",[11],−4.67 (2.517)
same,"Weekly Symptomatic RP Attacks Change from Baseline, Median",[11],−5.00
same,"Weekly Symptomatic RP Attacks Percent Change from Baseline, Mean (SD)",[11],−31.75 (6.199) %
same,"Weekly Symptomatic RP Attacks Percent Change from Baseline, Median",[11],−28.57%
same,"Weekly Symptomatic RP Attacks, Mean (SD)",[11],9.67 (4.163)
same,"Weekly Symptomatic RP Attacks, Median",[11],11.00
same,"Weekly Symptomatic RP Attacks Change from Baseline, Mean (SD)","Pooled Cilnidipine 20 mg and Cilnidipine 20 mg + Tadalafil 5 mg, n 4, Excluding Outliers",−3.63 (2.926)
